# Experimental data from patent US10538564B2, “Peptides having osteoblast growth-promoting activity and use thereof” (PHARMA FOODS INTERNATIONAL CO., LTD., priority 2014, dated 2020).
# No end group written: not given here.
# Assays:
# [1] = system: Sprague-Dawley male rats at three weeks old; assay: Bone growth promoting effect in adolescent rats (tibial growth plate, calcein label); assay type: in vivo, rat; conditions: FIG. 13
# Protocol: One of the synthetic peptides (No. 1) or physiological saline (control) was administered to Sprague-Dawley male rats at three weeks old by oral gavage using a gastric tube once a day for four days. The dose of the synthetic peptide was 1, 10 or 100 mg/kg·day. As a positive control, human growth hormone (hGH) (Norditropin, Standard Commodity Classification No. of Japan: 872412) was subcutaneously administered at 20 μg/kg·day once a day for four days. After the administration on day 4, calcein was subcutaneously administered, and the rats were kept for one day. The rats were euthanized by bloodletting under anesthesia, and the tibiae were harvested. The tissue specimens of the tibial growth plates were prepared, and calcein deposition areas (fluorescent regions) on the tibial growth plates were measured under a fluorescent microscope to determine the longitudinal bone growth.
# [2] = system: mouse-derived chondrogenic cell line ATDC5; assay: Chondrocyte growth-promoting activity (Cell Counting Kit-8); assay type: cell-based; conditions: 10 nmol/mL; 72 hours; relative to control taken as 100%; FIG. 14
# Protocol: This study was performed using mouse-derived chondrogenic cell line ATDC5 (RIKEN BANK, RBC0565). ATDC5 cells in the logarithmic growth phase were suspended at 3×10^4 cells/mL in Eagle MEM medium supplemented with 5% FCS (fetal calf serum), and 100 μL of the cell suspension was seeded in each well of a 96-well plate and precultured at 5% CO2 and 95% air at 37° C. On the next day, the medium in each well was removed, and medium containing the synthetic peptide (No. 1 or No. 6) at 10 nmol/mL was added. The cells were cultured for 72 hours. As a control, medium without a synthetic peptide was added. The reaction solution ([…]) of Cell Counting Kit-8 (Dojindo Laboratories) was added to each well. The plate was incubated for 3 hours, and the absorbance at 450 nm was measured with a microplate reader. The activity of the synthetic peptides for promoting the growth of chondrocytes was expressed in terms of the relative value, with the absorbance (growth rate) in the control group taken as 100%.
# [3] = system: mouse-derived cell line ATDC5; assay: Hyaluronic acid production-promoting activity (ELISA of culture supernatant); assay type: cell-based; conditions: 10 nmol/mL; supernatant after 48 hours of culture; FIG. 15
# Protocol: This study was performed using the mouse-derived cell line ATDC5 as used in Example 4. ATDC5 cells in the logarithmic growth phase were seeded at 2×10^4 cells/mL per well in a 24-well plate containing DMEM/F-12 (1:1) medium supplemented with 5% FCS (fetal calf serum), 10 μg/mL transferrin and 3×10^−8 M sodium selenite. The cells were precultured at 5% CO2 and 95% air at 37° C. On the next day, the medium in each well was removed, and medium containing the synthetic peptide (No. 1 or No. 6) at 10 nmol/mL was added. The cells were cultured for […]. As a control, medium without a synthetic peptide was added. After 48 hours of culture, the culture supernatants were collected, and their hyaluronic acid concentrations were measured using QnE Hyaluronic Acid ELISA Assay (Biotech Trading Partners). The concentrations of hyaluronic acid in the culture supernatants of the synthetic peptide addition group were calculated by subtracting the absorbance of the background from the absorbance of the supernatants, and fitting the resulting values to the reference curve prepared using the standard.
# [4] = system: ovariectomized (OVX) female rats; assay: Postmenopausal osteoporosis model of ovariectomized rats; assay type: in vivo, rat; conditions: for bone density compared with sham operation group / volume of the cancellous bone compared with sham operation group: six months
# Protocol: Female rats (eight months old, ten rats in each group) underwent ovariectomy (OVX), and synthetic peptide No. 1 was administered to the rats by oral gavage using a gastric tube once a day from the first postoperative day for six months. The dose of the synthetic peptide was 1, 10 or 100 mg/kg·day.
# [5] = system: aged female rats (13 to 14 months old); assay: Bone formation-promoting effect in aged rats; assay type: in vivo, rat; conditions: oral 1, 10 or 100 mg/kg·day, 20 weeks
# Protocol: Synthetic peptide No. 1 was administered to aged female rats (13 to 14 months old, ten rats in each group) by oral gavage using a gastric tube once a day for 20 weeks. The dose of the synthetic peptide was 1, 10 or 100 mg/kg·day.
# [6] = system: Crlj:W1 male rats at four weeks old; assay: Bone formation in growth cartilage and secondary cancellous bone, 21-day oral administration; assay type: in vivo, rat; conditions: 21 days
# Protocol: One of the synthetic peptides (No. 1) or water for injection (control) was administered to Crlj:W1 male rats at four weeks old by oral gavage using a gastric tube once a day for 21 days (n=3 in each group). The dose of the synthetic peptide was 100 mg/kg·day. As a positive control, human growth hormone (hGH) (Norditropin, Standard Commodity Classification No. of Japan: 872412) was subcutaneously administered at 500 μg/kg·day once a day for 21 days. As fluorescent labels for the site of bone formation, tetracycline (20 mg/kg) was subcutaneously administered on day 18 after the administration of the peptide or control, and then calcein (10 mg/kg) was subcutaneously administered on day 20 after the administration of the peptide or control. After the administration of the test sample on day 21, the rats were kept under fasting conditions. Twenty-four hours later, the rats were euthanized by bloodletting under anesthesia, and the tibiae were harvested (see FIG. 20). Non-decalcified specimens of the proximal tibiae were prepared and photographed under a fluorescent microscope (BX-53, OLYMPUS). The bone morphology was measured using a morphometry system (Histometry RT digitizer, System Supply Co., Ltd.) and an analysis software (CSS-840 cancellous bone morphometry version, System Supply Co., Ltd.). The longitudinal growth rate (Lo.G.R.) in the epiphyseal cartilage, which is the increase in the height per day, was determined by measuring the distance between the tetracycline label and the calcein label, and dividing the distance by the administration interval between the fluorescent labels (two days).
# [7] = oral 1, 10 or 100 mg/kg·day for six months
# [8] = oral 1, 10 or 100 mg/kg·day for six months, significant vs OVX-control group
sequence,measurement,setting,value
VNPESEEE [No. 1],"effect of enhancing the increase in the height of the tibial growth plates, compared with hGH","[1]; highest dose (100 mg/kg·day oral) vs hGH 20 μg/kg·day subcutaneous, four days",comparable to the effect of the subcutaneous administration of the human growth hormone
same,increase in the height of the tibial growth plates,"[1]; oral gavage 1, 10 or 100 mg/kg·day once a day for four days",enhanced in a manner consistent with the increase in the dose of the synthetic peptide
same,chondrocyte growth-promoting activity,[2],showed chondrocyte growth-promoting effect
same,hyaluronic acid production-promoting activity (hyaluronic acid concentration in culture supernatant),[3],showed hyaluronic acid production-promoting effect
same,bone density compared with sham operation group,[4]; high-dose 100 mg/kg·day oral,equal or higher bone density as compared with the sham operation group
same,volume of the cancellous bone compared with sham operation group,[4]; high-dose 100 mg/kg·day oral,equal or higher volume of the cancellous bone as compared with the sham operation group
same,bone density compared with sham operation group,[4]; medium-dose 10 mg/kg·day oral,equal or higher bone density as compared with the sham operation group
same,volume of the cancellous bone compared with sham operation group,[4]; medium-dose 10 mg/kg·day oral,equal or higher volume of the cancellous bone as compared with the sham operation group
same,OVX-induced increase in the trabecular separation,[4]; [7],tended to be inhibited
same,OVX-induced reduction in the trabecular numbers,[4]; [7],tended to be inhibited
same,OVX-induced reduction in the trabecular width,[4]; [7],tended to be inhibited
same,bone density of the distal femoral metaphysis,[4]; [8],increase in the bone density of the distal femoral metaphysis in a manner consistent with the increase in the dose of the synthetic peptide
same,cancellous bone volume in the proximal tibial metaphysis,[4]; [8],increased in the OVX-synthetic peptide administration group in a manner consistent with the increase in the dose
same,bone density in the femurs,[5],increased in a dose-dependent manner
same,cancellous bone volume in the proximal tibial metaphysis,[5],increased in a dose-dependent manner
same,"longitudinal growth rate (Lo.G.R.) in the epiphyseal cartilage, vs control group","[6]; No. 1 oral 100 mg/kg·day, hGH 500 μg/kg·day subcutaneous, FIG. 21",significant promotion of bone growth as compared with the control group
same,"longitudinal growth rate (Lo.G.R.) in the epiphyseal cartilage, vs hGH administration group","[6]; oral 100 mg/kg·day, FIG. 21",significant as compared with the hGH administration group
same,secondary cancellous bone volume (bone volume/tissue volume (BV/TV)),"[6]; oral 100 mg/kg·day, FIG. 22",higher secondary cancellous bone volume than the control group and the hGH administration group
same,osteoblast surface/bone surface (Ob.S/BS),"[6]; oral 100 mg/kg·day, FIG. 23",high percentage
same,osteoclast surface/Bone surface (Oc.S/BS),"[6]; oral 100 mg/kg·day, FIG. 24",low percentage
